Test results: US5356921A, “Imidazolylphenol compounds, pharmaceutical compositions containing them, and processes for preparing such compounds and compositions” (Gruenenthal GmbH, priority 1992, dated 1994)

Legend:
Format in all cases: cell-based
[1] = tested on: Leukotriene-Synthesis Induced by FMLP/Merthiolate of Human Polymorphonuclear Leukocytes; assay: Inhibition of leukotriene-synthesis induced by FMLP/merthiolate of human polymorphonuclear leukocytes (reversibility); details: Leukocyte, human granulocytes, preincubated 5 minutes, centrifuged, resuspended, read-out: IC50-value of the reversible inhibitory action
Procedure: (§1) Human granulocytes were isolated by dextran-sedimentation and a Percoll gradient method and suspended in HBSS (Hanks buffered salt solution) at1×10^7 cells/mi. The cells were incubated in presence of a compound according to the invention or a solvent (ethanol and/or dimethyl sulfoxide) at 37° C. for 2 minutes, then with merthiolate (sodium ethylmercurithiosalicylate; 40 μM) for 2 minutes, and thereafter with FMLP (formyl-methionyl-leucylphenylalanine; 10^-7 M) for 15 minutes. After solid phase extraction the metabolites of arachidonic acid 5-HETE, LTB4, 6-trans-LTB4 -isomers, 20-OH-LTB4 and 20-COOH-LTB4 were identified by RP-HPLC [M. Haurand and L. Flohe in Biochem. Pharmacol. 38, 2129-37 (1989)].
To examine the reversibility of the inhibitory action the cells were incubated with a compound according the invention or a solvent (ethanol and/or dimethyl sulfoxide) at 37° C. for 5 minutes, centrifuged at 300×g for 5 minutes and resuspended in 2 ml HBSS. Then the cells were incubated with merthiolate (40 μM) at 37° C. for 2 minutes and thereafter with FMLP (10^-7 M) for 15 minutes. The IC50 -value of the reversible inhibitory action was 2μmolar when the compound prepared according to Example 1 was used.

12-lipoxygenase = assay: Inhibition of 12-HETE- and 5S,12S-DiHETE-synthesis induced by FMLP/merthiolate of human polymorphonuclear leukocytes and thrombocytes; details: coincubated human granulocytes and thrombocytes
Procedure: as §1
Coincubations of human granulocytes and thrombocytes were carried out and investigated according to the inhibition of leukotriene-synthesis induced by FMLP/merthiolate. 12-HETE and 5S,12S-dihydroxy-HETE (5S,12S-DiHETE) were additionally included in the evaluation.

thromboxane synthase = target: T1, thromboxane synthase (Homo sapiens, UniProt P24557); assay: Inhibition of thromboxane synthase (human thrombocytes); details: for IC50: human thrombocytes, arachidonic acid 3.5 μM, read-out: IC50-Value, inhibition of thromboxane synthase (TXB2 formation); for inhibitory action on thromboxane synthase: in words
T1 construct: human thrombocytes were isolated from platelet-rich plasma; endogenous in cells; host or cells: human thrombocytes (platelets), intact
T1 sequence (P24557 1-533): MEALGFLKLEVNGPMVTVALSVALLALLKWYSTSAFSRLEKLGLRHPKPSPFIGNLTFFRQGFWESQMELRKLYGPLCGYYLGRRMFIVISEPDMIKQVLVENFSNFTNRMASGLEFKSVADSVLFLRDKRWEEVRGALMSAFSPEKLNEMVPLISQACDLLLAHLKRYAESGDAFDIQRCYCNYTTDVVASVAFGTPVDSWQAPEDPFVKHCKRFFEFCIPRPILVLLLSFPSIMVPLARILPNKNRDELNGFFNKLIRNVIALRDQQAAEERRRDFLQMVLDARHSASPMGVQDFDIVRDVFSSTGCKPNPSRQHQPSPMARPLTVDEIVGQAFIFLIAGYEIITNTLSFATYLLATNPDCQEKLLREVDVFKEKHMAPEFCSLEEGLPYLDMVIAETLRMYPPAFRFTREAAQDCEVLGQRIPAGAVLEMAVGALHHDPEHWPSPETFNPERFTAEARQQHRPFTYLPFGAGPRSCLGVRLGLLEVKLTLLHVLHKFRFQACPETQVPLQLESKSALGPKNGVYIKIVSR
Procedure: After addition of prostacyclin, human thrombocytes were isolated from platelet-rich plasma and suspended in Tyrode-Hepes buffer of pH 7.4 at 2×10^8 cells/ml. One ml aliquots of cells were incubated either with a compound according to the invention (0.1 to 100 μM) or a solvent (ethanol and/or dimethyl sulfoxide) at 37° C. for 3 minutes and thereafter with radioactively labelled arachidonic acid (3.5 μM) for 5 minutes. The reaction was stopped and the metabolites of arachidonic acid were extracted by adding methanol, chloroform and formic acid. After evaporation of the chloroform-containing layer to dryness under nitrogen, the residue obtained was resuspended in 50 μl chloroform and analyzed by thin layer chromatography. The distribution of the radioactivity of the different metabolites of arachidonic acid was measured using a TLC linear analyzer.

Row | SMILES | IC50 [1] [nM] | inhibitory action on 12-lipoxygenase (12-lipoxygenase) | IC50 (thromboxane synthase) [nM] | inhibitory action on thromboxane synthase (thromboxane synthase)
1 | NC(=O)N(O)Cc1ccc(Oc2ccc(-n3ccnc3)cc2)cc1 [Example 1, N-hydroxy-N-[4-[4-(1H-imidazol-1-yl)phenoxy]phenylmethyl]urea] | 2000 | did not exert an inhibitory action on 12-lipoxygenase | 2800 | same inhibitory potency as the hydrochloride of the imidazolylethoxybenzoic acid UK 37 248
2 | CC(=O)N(O)Cc1ccc(Oc2ccc(-n3ccnc3)cc2)cc1 [Example 3, N-hydroxy-N-[4-[4-(1H-imidazol-1-yl)phenoxy]phenylmethyl]acetamide] | – | – | 2900 | same inhibitory potency as the hydrochloride of the imidazolylethoxybenzoic acid UK 37 248
